Data from patent US10131652B2, “Pyrimidinyloxy benzene derivatives as herbicides” (E. I. DU PONT DE NEMOURS AND COMPANY, priority 2014, dated 2018).
Like-named read-outs stand apart in the source and are kept apart here.

What was measured:
Test in all cases: Test D pre-/postemergence plant response
Type in all cases: in vivo
[1] = tested on: Italian ryegrass (Lolium multiflorum); details: Lolium multiflorum; for pest or weed control at 16 g/ha: 16 g ai/ha; for pest or weed control at 31 g/ha: 31 g ai/ha; for pest or weed control at 62 g/ha: 62 g ai/ha; for pest or weed control at 125 g/ha: 125 g ai/ha
Outline: (§1)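 Sown seed (loam/sand soil) treated preemergence; emerged plants, 1- to 4-leaf stage and 2 to 18 cm, treated postemergence in peat/vermiculite medium. Greenhouse incubation 13–15 d. Endpoint: visual 0–100 rating versus untreated.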

[2] = tested on: barnyardgrass (Echinochloa crus-galli); details: Echinochloa crus-galli; for pest or weed control at 16 g/ha: 16 g ai/ha; for pest or weed control at 31 g/ha: 31 g ai/ha; for pest or weed control at 62 g/ha: 62 g ai/ha; for pest or weed control at 125 g/ha: 125 g ai/ha
Outline: as §1

[3] = tested on: blackgrass (Alopecurus myosuroides); details: Alopecurus myosuroides; for pest or weed control at 16 g/ha: 16 g ai/ha; for pest or weed control at 31 g/ha: 31 g ai/ha; for pest or weed control at 62 g/ha: 62 g ai/ha; for pest or weed control at 125 g/ha: 125 g ai/ha
Outline: as §1

corn (Zea mays) = details: Zea mays; for Corn plant response rating (crop injury, 0 = no effect, 100 = complete kill) at 62 g/ha: 62 g ai/ha
Outline: as §1

[4] = tested on: galium (catchweed bedstraw, Galium aparine); details: Galium; for pest or weed control at 16 g/ha: 16 g ai/ha; for pest or weed control at 31 g/ha: 31 g ai/ha; for pest or weed control at 62 g/ha: 62 g ai/ha; for pest or weed control at 125 g/ha: 125 g ai/ha
Outline: as §1

[5] = tested on: giant foxtail (Setaria faberii); details: Setaria faberi; for pest or weed control at 16 g/ha: 16 g ai/ha; for pest or weed control at 31 g/ha: 31 g ai/ha; for pest or weed control at 62 g/ha: 62 g ai/ha; for pest or weed control at 125 g/ha: 125 g ai/ha
Outline: as §1

[6] = tested on: johnsongrass (Sorghum halepense); details: Sorghum halepense; for pest or weed control at 16 g/ha: 16 g ai/ha; for pest or weed control at 31 g/ha: 31 g ai/ha; for pest or weed control at 62 g/ha: 62 g ai/ha; for pest or weed control at 125 g/ha: 125 g ai/ha
Outline: as §1

[7] = tested on: lambsquarters (Chenopodium album); details: Chenopodium album; for pest or weed control at 16 g/ha: 16 g ai/ha; for pest or weed control at 31 g/ha: 31 g ai/ha; for pest or weed control at 62 g/ha: 62 g ai/ha; for pest or weed control at 125 g/ha: 125 g ai/ha
Outline: as §1

[8] = tested on: large (Lg) crabgrass (Digitaria sanguinalis); details: Digitaria sanguinalis; for pest or weed control at 16 g/ha: 16 g ai/ha; for pest or weed control at 31 g/ha: 31 g ai/ha; for pest or weed control at 62 g/ha: 62 g ai/ha; for pest or weed control at 125 g/ha: 125 g ai/ha
Outline: as §1

[9] = pre-emergence, Preemergence, scale 0 to 100 (0 no effect, 100 complete control), read-out: Plant response rating, Ryegrass, Italian
[10] = post-emergence, Postemergence, scale 0 to 100, 0 no effect, 100 complete control, read-out: Plant response rating, Barnyardgrass
[11] = pre-emergence, Preemergence, scale 0 to 100 (0 no effect, 100 complete control), read-out: Plant response rating, Barnyardgrass
[12] = post-emergence, Postemergence, scale 0 to 100, 0 no effect, 100 complete control, read-out: Plant response rating, Blackgrass
[13] = pre-emergence, Preemergence, scale 0 to 100 (0 no effect, 100 complete control), read-out: Plant response rating, Blackgrass
[14] = post-emergence, Postemergence, scale 0 to 100, 0 no effect, 100 complete control, read-out: Plant response rating, Galium
[15] = pre-emergence, Preemergence, scale 0 to 100 (0 no effect, 100 complete control), read-out: Plant response rating, Galium
[16] = post-emergence, Postemergence, scale 0 to 100, 0 no effect, 100 complete control, read-out: Plant response rating, Foxtail, Giant
[17] = pre-emergence, Preemergence, scale 0 to 100 (0 no effect, 100 complete control), read-out: Plant response rating, Foxtail, Giant
[18] = post-emergence, Postemergence, scale 0 to 100, 0 no effect, 100 complete control, read-out: Plant response rating, Johnsongrass
[19] = pre-emergence, Preemergence, scale 0 to 100 (0 no effect, 100 complete control), read-out: Plant response rating, Johnsongrass
[20] = pre-emergence, Preemergence, scale 0 to 100 (0 no effect, 100 complete control), read-out: Plant response rating, Lambsquarters
[21] = post-emergence, Postemergence, scale 0 to 100, 0 no effect, 100 complete control, read-out: Plant response rating, Crabgrass, Large
[22] = pre-emergence, Preemergence, scale 0 to 100 (0 no effect, 100 complete control), read-out: Plant response rating, Crabgrass, Large

SMILES: FC(F)(F)c1cc(-c2ccccc2Oc2ncc(Cl)cn2)no1 [Compound 200, 5-chloro-2-[2-[5-(trifluoromethyl)-3-isoxazolyl]phenoxy]pyrimidine]
- pest or weed control at 16 g/ha ([1]; post-emergence, Postemergence, read-out: Plant response rating (scale 0 to 100), Ryegrass, Italian): 20%
- pest or weed control at 31 g/ha ([1]; post-emergence, Postemergence, scale 0 to 100 (0 no effect, 100 complete control), read-out: Ryegrass, Italian plant response rating): 25%
- pest or weed control at 62 g/ha ([1]; post-emergence, Postemergence, scale 0 to 100, 0 no effect, 100 complete control, read-out: Ryegrass, Italian plant response rating): 35%
- pest or weed control at 125 g/ha ([1]; post-emergence, Postemergence, scale 0 to 100, 0 no effect, 100 complete control, read-out: Plant response rating, Ryegrass, Italian): 35%
- pest or weed control at 125 g/ha ([1]; pre-emergence, Preemergence, read-out: Plant response rating (scale 0 to 100), Ryegrass, Italian): 90%
- pest or weed control at 16 g/ha [1, 9]: 30%
- pest or weed control at 31 g/ha [1, 9]: 80%
- pest or weed control at 62 g/ha [1, 9]: 85%
- pest or weed control at 16 g/ha ([2]; post-emergence, Postemergence, read-out: Plant response rating (scale 0 to 100), Barnyardgrass): 5%
- pest or weed control at 31 g/ha ([2]; post-emergence, Postemergence, scale 0 to 100 (0 no effect, 100 complete control), read-out: Barnyardgrass plant response rating): 10%
- pest or weed control at 62 g/ha [2, 10]: 10%
- pest or weed control at 125 g/ha [2, 10]: 15%
- pest or weed control at 125 g/ha ([2]; pre-emergence, Preemergence, read-out: Plant response rating (scale 0 to 100), Barnyardgrass): 100%
- pest or weed control at 16 g/ha [2, 11]: 35%
- pest or weed control at 31 g/ha [2, 11]: 95%
- pest or weed control at 62 g/ha [2, 11]: 100%
- pest or weed control at 16 g/ha ([3]; post-emergence, Postemergence, read-out: Plant response rating (scale 0 to 100), Blackgrass): 30%
- pest or weed control at 31 g/ha ([3]; post-emergence, Postemergence, scale 0 to 100 (0 no effect, 100 complete control), read-out: Blackgrass plant response rating): 30%
- pest or weed control at 62 g/ha [3, 12]: 40%
- pest or weed control at 125 g/ha [3, 12]: 90%
- pest or weed control at 125 g/ha ([3]; pre-emergence, Preemergence, read-out: Plant response rating (scale 0 to 100), Blackgrass): 90%
- pest or weed control at 16 g/ha [3, 13]: 85%
- pest or weed control at 31 g/ha [3, 13]: 90%
- pest or weed control at 62 g/ha [3, 13]: 90%
- plant injury at 16 g/ha (corn (Zea mays); post-emergence, Postemergence, 16 g ai/ha, read-out: Plant response rating (scale 0 to 100), Corn): 5%
- plant injury at 31 g/ha (corn (Zea mays); post-emergence, Postemergence, 31 g ai/ha, scale 0 to 100 (0 no effect, 100 complete control), read-out: Corn plant response rating): 5%
- Corn plant response rating (crop injury, 0 = no effect, 100 = complete kill) at 62 g/ha (corn (Zea mays); post-emergence, Postemergence, scale 0 to 100, 0 no effect, 100 complete control): 10%
- Corn plant response rating (crop injury, 0 = no effect, 100 = complete kill) at 125 g/ha (corn (Zea mays); post-emergence, Postemergence, 125 g ai/ha, scale 0 to 100, 0 no effect, 100 complete control): 15%
- plant injury at 125 g/ha (corn (Zea mays); pre-emergence, Preemergence, 125 g ai/ha, read-out: Plant response rating (scale 0 to 100), Corn): 20%
- Corn plant response rating (crop injury, 0 = no effect, 100 = complete kill) at 16 g/ha (corn (Zea mays); pre-emergence, Preemergence, 16 g ai/ha, scale 0 to 100 (0 no effect, 100 complete control)): 0%
- Corn plant response rating (crop injury, 0 = no effect, 100 = complete kill) at 31 g/ha (corn (Zea mays); pre-emergence, Preemergence, 31 g ai/ha, scale 0 to 100 (0 no effect, 100 complete control)): 0%
- Corn plant response rating (crop injury, 0 = no effect, 100 = complete kill) at 62 g/ha (corn (Zea mays); pre-emergence, Preemergence, scale 0 to 100 (0 no effect, 100 complete control)): 10%
- pest or weed control at 16 g/ha ([4]; post-emergence, Postemergence, read-out: Plant response rating (scale 0 to 100), Galium): 75%
- pest or weed control at 31 g/ha ([4]; post-emergence, Postemergence, scale 0 to 100 (0 no effect, 100 complete control), read-out: Galium plant response rating): 100%
- pest or weed control at 62 g/ha [4, 14]: 100%
- pest or weed control at 125 g/ha [4, 14]: 100%
- pest or weed control at 125 g/ha ([4]; pre-emergence, Preemergence, read-out: Plant response rating (scale 0 to 100), Galium): 95%
- pest or weed control at 16 g/ha [4, 15]: 85%
- pest or weed control at 31 g/ha [4, 15]: 98%
- pest or weed control at 62 g/ha [4, 15]: 100%
- pest or weed control at 16 g/ha ([5]; post-emergence, Postemergence, read-out: Plant response rating (scale 0 to 100), Foxtail, Giant): 5%
- pest or weed control at 31 g/ha ([5]; post-emergence, Postemergence, scale 0 to 100 (0 no effect, 100 complete control), read-out: Foxtail, Giant plant response rating): 20%
- pest or weed control at 62 g/ha [5, 16]: 10%
- pest or weed control at 125 g/ha [5, 16]: 15%
- pest or weed control at 125 g/ha ([5]; pre-emergence, Preemergence, read-out: Plant response rating (scale 0 to 100), Foxtail, Giant): 100%
- pest or weed control at 16 g/ha [5, 17]: 95%
- pest or weed control at 31 g/ha [5, 17]: 100%
- pest or weed control at 62 g/ha [5, 17]: 100%
- pest or weed control at 16 g/ha ([6]; post-emergence, Postemergence, read-out: Plant response rating (scale 0 to 100), Johnsongrass): 15%
- pest or weed control at 31 g/ha ([6]; post-emergence, Postemergence, scale 0 to 100 (0 no effect, 100 complete control), read-out: Johnsongrass plant response rating): 20%
- pest or weed control at 62 g/ha [6, 18]: 45%
- pest or weed control at 125 g/ha [6, 18]: 40%
- pest or weed control at 125 g/ha ([6]; pre-emergence, Preemergence, read-out: Plant response rating (scale 0 to 100), Johnsongrass): 100%
- pest or weed control at 16 g/ha [6, 19]: 25%
- pest or weed control at 31 g/ha [6, 19]: 60%
- pest or weed control at 62 g/ha [6, 19]: 85%
- pest or weed control at 16 g/ha ([7]; post-emergence, Postemergence, read-out: Plant response rating (scale 0 to 100), Lambsquarters): 70%
- pest or weed control at 31 g/ha ([7]; post-emergence, Postemergence, scale 0 to 100 (0 no effect, 100 complete control), read-out: Lambsquarters plant response rating): 80%
- pest or weed control at 62 g/ha ([7]; post-emergence, Postemergence, scale 0 to 100, 0 no effect, 100 complete control, read-out: Lambsquarters plant response rating): 85%
- pest or weed control at 125 g/ha ([7]; post-emergence, Postemergence, scale 0 to 100, 0 no effect, 100 complete control, read-out: Plant response rating, Lambsquarters): 98%
- pest or weed control at 125 g/ha ([7]; pre-emergence, Preemergence, read-out: Plant response rating (scale 0 to 100), Lambsquarters): 100%
- pest or weed control at 16 g/ha [7, 20]: 75%
- pest or weed control at 31 g/ha [7, 20]: 98%
- pest or weed control at 62 g/ha [7, 20]: 95%
- pest or weed control at 16 g/ha ([8]; post-emergence, Postemergence, read-out: Plant response rating (scale 0 to 100), Crabgrass, Large): 10%
- pest or weed control at 31 g/ha ([8]; post-emergence, Postemergence, scale 0 to 100 (0 no effect, 100 complete control), read-out: Crabgrass, Large plant response rating): 10%
- pest or weed control at 62 g/ha [8, 21]: 25%
- pest or weed control at 125 g/ha [8, 21]: 35%
- pest or weed control at 125 g/ha ([8]; pre-emergence, Preemergence, read-out: Plant response rating (scale 0 to 100), Crabgrass, Large): 100%
- pest or weed control at 16 g/ha [8, 22]: 98%
- pest or weed control at 31 g/ha [8, 22]: 100%
- pest or weed control at 62 g/ha [8, 22]: 100%
